Series [1] has as its target T1, Notch transcriptional activation complex (NTC) (Homo sapiens, UniProt P46531+Q06330).
T1 construct: made in house; host or cells: SF21 insect cells (baculovirus)
Kind of series: Notch complex assembly assay (NTC AlphaScreen assay). Type of series: binding. On the procedure:
Notch Complex Assembly Assay
All recombinant proteins were expressed using baculovirus expression vectors in SF21 cells and purified. Unless otherwise stated, all assays contained 125 fmol of double stranded oligonucleotide, CSL, Notch1 and MAML1 proteins. Reactions were carried out in Tris-buffered saline with 0.1% Tween (“TBS-T”) buffer containing 0.2% bovine serum albumin (“BSA”) and 100 μg/mL salmon sperm DNA. Briefly, the Notch complex was assembled on a biotinylated double stranded (“DS”) oligonucleotide harboring one CSL binding site (5′-[…]-3′). Complex assembly was quantitated using ALPHASCREEN technology (Perkin Elmer). Proteins in the complexes were detected using specific antibodies to either MAML1 (Cell signaling, D3K7B), Notch1 (Abcam, 52627) or CSL (anti-His, Abcam 18184). Streptavidin conjugated […] beads (Perkin Elmer, 6760002) were used to bind the DS oligonucleotide, and Protein-A conjugated […] beads (Perkin Elmer, 6760137) were used to detect antibody-coated proteins. For screening compounds, Notch transcriptional activation complex (“NTC”) components were added to wells that already contained the inhibitor to be assayed and allowed to incubate for 30 minutes. The ALPHASCREEN plate (Perkin Elmer, 6008350) was then read on an Envision Plate reader (Perkin Elmer) as specified by the manufacturer.

Series [2] can be described thus: physchem.
In series [3] the test system is OE 33 cell line. Kind of series: Cell viability, MTT, OE33 cell line. It counts as cell-based, human. The settings on record: for IC50: Homo sapiens, OE33, 72 h treatment. The text has this:
OE33 cells, human esophageal adenocarcinoma cell lines, were obtained from the European Collection of Cell Culture. SUM-149 and SUM-159, breast cancer cell lines, were obtained from Dr. Joyce Slingerland at the University of Miami School of Medicine. The following cell lines were obtained directly from the ATCC: 786-0, a human renal cell adenocarcinoma cell line; HT-1080, a human fibrosarcoma cell line; MCF-7, a mammary gland adenocarcinoma; T47D, a human mammary ductal carcinoma cell line; and H-23 a non-small cell lung adenocarcinoma cell line. All cell lines were propagated in growth media as specified.

Series [4] in a line: Metabolism to acid form in mouse hepatocytes. Type of series: in vitro ADME. The following applies: to SSTN-258.
A short description of series [5]: Metabolism to acid form in liver microsomes. Type of series: in vitro ADME. The settings on record: to SSTN-258.
A short description of series [6]: Pharmacokinetic study in mouse plasma. It counts as in vivo. The following applies: for Cmax: read-out: *C0/Cmax. As for the experimental part: Pharmacokinetic studies were performed as previously described (Astudillo et al. (2016) Cancer Res). The following treatments were administered: NADi-260 via intraperitoneal (i.p.) route at 100 mg/kg, NADI-260 via intravenous route (i.v.) at 2 mg/kg, NADi-351 via i.p. at 10 mg/kg, NADi-351 via […] at 10 mg/kg and NADi-351 via oral route (PO) at 50 mg/kg. Blood samples were collected from each treatment group and their respective control grounds, plasma was separated from blood immediately by centrifugation at 4000 rpm for 10 min at 4° C. and stored below −70° C. until bioanalysis. All samples were processed for analysis by protein precipitation using acetonitrile and analyzed by fit for purpose LC-MS/MS method. Pharmacokinetic parameters were calculated using the non-compartmental analysis module of Phoenix WinNonlin (Version 6.3). Histological Analysis of Mouse Intestine Tissue

Series [7] can be described thus: GSH ethyl ester conjugation / parent remaining in human liver microsomes. It counts as in vitro ADME. The following applies: for Percentage (%) Parent Remaining in HLM: reacted with GSH. For orientation: Liver microsomes are a subcellular fraction often used to study metabolism.
The nature of series [8]: Aqueous solubility in SGF, FaSSIF and PBS.
The mark [9] stands for this setting: Table C, NTC AlphaScreen assay, read-out: *IC50.
Where [10] appears, read: Table B, read-out: IC50 (μM) NTC.
Where [11] appears, read: Table E, NTC AlphaScreen assay, read-out: *IC50.
The mark [12] stands for this setting: ip, NADi-260 i.p. 100 mg/kg, mouse plasma.
Setting [13] is: iv, NADi-260 i.v. 2 mg/kg, mouse plasma, back extrapolated, initial three time points only.
Where [14] appears, read: iv, NADi-260 i.v. 2 mg/kg, mouse plasma, initial three time points only.
Where [15] appears, read: pH 1.2, simulated gastric fluid.

In brackets after ≈: the same amount, converted by molar mass. Where two headings read alike, the source gives them in different places. Where only a bound is given, the exact number is not on record here.

As usually defined, the IC50 is the midpoint of a concentration-inhibition curve. The term solubility denotes the concentration that dissolves in the medium under given conditions. A high value points to much dissolved substance. In general, AUC(0-t) refers to the area under the concentration-time curve up to a stated or last time point. The low end stands for less exposure, the high end for more exposure. The Tmax is the time at which the peak concentration occurs. Usually AUC(0-inf) stands for the area under the concentration-time curve extrapolated to infinity. A low value points to low exposure. For orientation: clearance means the volume of plasma or blood freed of the substance per unit of time. The half-life is the time needed for the level to fall by half in the phase considered. A lower half-life goes with fast loss.

T1 sequence (P46531 1754-2555 limits assumed): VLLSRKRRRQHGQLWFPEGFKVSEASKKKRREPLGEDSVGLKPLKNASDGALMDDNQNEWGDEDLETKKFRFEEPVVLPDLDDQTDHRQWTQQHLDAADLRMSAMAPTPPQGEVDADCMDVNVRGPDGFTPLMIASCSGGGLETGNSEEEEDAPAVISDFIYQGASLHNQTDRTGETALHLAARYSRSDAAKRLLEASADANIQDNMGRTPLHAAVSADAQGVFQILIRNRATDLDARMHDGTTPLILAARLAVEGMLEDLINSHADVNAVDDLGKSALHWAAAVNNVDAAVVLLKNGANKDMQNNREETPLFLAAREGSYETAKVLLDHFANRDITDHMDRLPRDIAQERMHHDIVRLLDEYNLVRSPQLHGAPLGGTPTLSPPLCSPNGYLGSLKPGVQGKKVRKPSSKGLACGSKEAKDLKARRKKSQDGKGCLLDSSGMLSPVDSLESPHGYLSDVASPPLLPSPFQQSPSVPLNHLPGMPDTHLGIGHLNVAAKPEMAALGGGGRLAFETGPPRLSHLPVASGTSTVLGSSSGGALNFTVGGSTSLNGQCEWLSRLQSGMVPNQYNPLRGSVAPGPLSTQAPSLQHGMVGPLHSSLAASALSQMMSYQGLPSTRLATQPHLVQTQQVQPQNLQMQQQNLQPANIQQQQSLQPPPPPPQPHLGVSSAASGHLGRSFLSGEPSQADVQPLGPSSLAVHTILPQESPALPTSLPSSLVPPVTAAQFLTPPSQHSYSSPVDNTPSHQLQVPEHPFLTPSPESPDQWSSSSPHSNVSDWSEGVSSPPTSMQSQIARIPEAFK
T1 sequence (Q06330 whole entry): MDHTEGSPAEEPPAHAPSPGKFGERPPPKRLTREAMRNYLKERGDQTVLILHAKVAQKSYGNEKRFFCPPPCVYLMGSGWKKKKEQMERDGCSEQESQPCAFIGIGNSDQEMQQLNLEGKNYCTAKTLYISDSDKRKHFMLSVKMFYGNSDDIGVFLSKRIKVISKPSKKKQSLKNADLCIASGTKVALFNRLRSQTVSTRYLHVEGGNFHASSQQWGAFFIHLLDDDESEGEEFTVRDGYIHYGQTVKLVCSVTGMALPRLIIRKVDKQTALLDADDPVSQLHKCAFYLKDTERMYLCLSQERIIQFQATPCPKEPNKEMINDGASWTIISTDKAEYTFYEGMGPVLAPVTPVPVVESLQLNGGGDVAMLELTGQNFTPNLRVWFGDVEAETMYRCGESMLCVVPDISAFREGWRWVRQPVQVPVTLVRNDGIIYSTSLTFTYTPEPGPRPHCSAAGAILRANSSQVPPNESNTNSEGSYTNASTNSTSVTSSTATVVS

`CCc1nnc(COc2c(F)cc(/C=C3\SC(=S)N(CC(=O)N(C)C)C3=O)cc2OC)[nH]1` [NADi-262]: in series [1] (setting [9]), the IC50 amounted to 0.08 µM.

`CC/C(=C(/CC)c1ccc(O)cc1)c1ccc(O)cc1` [DES, diethylstilbestrol, reference compound]: the solubility in series [2] (pH 7.4, aqueous buffer) is less than 5 µM.

As to `CCOC(=O)COc1c(F)cc(/C=C2\SC(=S)N(CC(=O)N(C)C)C2=O)cc1OC` [SSTN-253], the IC50 in series [1] (setting [10]) was found to be 0.058 µM; in series [1] (setting [9]), 0.06 µM; in series [1] (setting [11]) it was 0.06 µM; in series [3] it was 9.3 µM. Further, the “time to metabolize to acid form” value in series [4] and in series [5] was not above 15 min each time. In addition, the “metabolism in mouse plasma” value in series [6] (pharmacokinetic study of SSTN-253, FIG. 1C) was “metabolizes to its acid form (SSTN-258)”.

As for `CCN(CC)C(=O)COc1c(F)cc(/C=C2\SC(=S)N(CC(=O)N(C)C)C2=O)cc1OC` [NADi-244], the IC50 in series [1] (setting [9]) was found to be 2.9 µM.

In the case of `COc1cc(/C=C2\SC(=S)N(CC(=O)N(C)C)C2=O)cc(F)c1O` [PM6], in series [6] (after NADi-260 i.v. 2 mg/kg, mouse plasma), the “plasma level of metabolite” value was “BQL”. In series [6] (setting [12]), the AUC(0-t) was determined as 21 ng·h/mL, the Tmax amounted to 15 min and the Cmax turned out to be 41 ng/mL.

With `COc1cc(/C=C2\SC(=S)N(CC(=O)N(C)C)C2=O)cc(F)c1OCc1nc(C)c(C)o1` [NADi-251], in series [1] (Table C, NTC AlphaScreen assay), the “*IC50 (μM)” value is “Inactive”.

For the molecule `COc1cc(/C=C2\SC(=S)N(CC(=O)N(C)C)C2=O)cc(F)c1OCc1nc(C)no1` [NADi-258], the “*IC50 (μM)” value in series [1] (Table C, NTC AlphaScreen assay) is listed as “Inactive”.

As for `COc1cc(/C=C2\SC(=S)N(CC(=O)N(C)C)C2=O)cc(F)c1OCc1nc[nH]n1` [NADi-260, (Z)-2-(5-(4-((1H-1,2,4-triazol-3-yl)methoxy)-3-fluoro-5-methoxybenzylidene)-4-oxo-2-thioxothiazolidin-3-yl)-N,N-dimethylacetamide], the IC50 in series [1] (setting [9]) is 0.02 µM. For the same molecule, in series [1] (setting [11]), the half-maximal inhibitory concentration (IC50) was determined as 0.02 µM. For the same molecule, in series [6] (setting [12]), the AUC(0-inf) was found to be 5420 ng·h/mL, the AUC(0-t) came out at 5320 ng·h/mL, the Tmax was 4.8 min and the Cmax was found to be 5700 ng/mL. In addition, the Cmax in series [6] (setting [13]) is 837 ng/mL. For the same molecule, the clearance in series [6] (iv, NADi-260 i.v. 2 mg/kg, mouse plasma, cell says NR, value in footnote) came to 429 mL/min/kg. In series [6] (setting [14]), this molecule showed an AUC(0-inf) of 78 ng·h/mL, an AUC(0-t) of 77 ng·h/mL and a half-life of 4.8 min. Also, the Vd in series [6] (iv, NADi-260 i.v. 2 mg/kg, mouse plasma, read-out: Vss) stood at 1.79 L/kg. Also, the “Percentage (%) Parent Remaining in HLM” value in series [7] (incubation time 0 min) worked out at 100%. For the same molecule, in series [7] (incubation time 60 min), the “Percentage (%) Parent Remaining in HLM” value is 46%. Further, the “GSH ethyl ester conjugation in HLM” value in series [7] (within 60 minutes of incubation) is “showed GSH ethyl ester conjugation”.

As for `CCc1noc(COc2c(F)cc(/C=C3\SC(=S)N(CC(=O)N(C)C)C3=O)cc2OC)n1` [NADi-259], the “*IC50 (μM)” value in series [1] (Table C, NTC AlphaScreen assay) is “Inactive”.

As to `COc1cc(/C=C2\SC(=S)N(CC(=O)N(C)C)C2=O)cc(F)c1OCc1nnc(C)[nH]1` [NADi-261], the IC50 in series [1] (setting [9]) worked out at 0.62 µM.

In the case of `CCc1coc(COc2c(F)cc(/C=C3\SC(=S)N(CC(=O)N(C)C)C3=O)cc2OC)n1` [NADi-253], the IC50 in series [1] (setting [9]) is 0.3 µM.

As for `O=C(O)CCCc1ccc(N(CCCl)CCCl)cc1` [Chlorambucil, chlorambucil], the solubility in series [8] (setting [15]) was 70.4 ± 2.6 µM (≈ 21.4 µg/mL); in series [8] (pH 6.5, fassif), 68.9 ± 1.9 µM (≈ 21 µg/mL).

On to `COc1cc(CC2SC(=S)N(CC(=O)N(C)C)C2=O)cc(F)c1OCc1nnc[nH]1` (centres unmarked) [PM7], for which, in series [6] (setting [12]), the AUC(0-inf) came out at 19100 ng·h/mL, the AUC(0-t) was found to be 18800 ng·h/mL, the Tmax is 15 min and the Cmax is 8520 ng/mL. The Cmax in series [6] (setting [13]) is 3480 ng/mL. Besides, in series [6] (setting [14]), the AUC(0-inf) was 310 ng·h/mL and the AUC(0-t) came out at 308 ng·h/mL.

Consider `COc1cc(/C=C2\SC(=S)N(CC(=O)N(C)C)C2=O)cc(F)c1OCc1ncc(C)o1` [NADi-249], for which, in series [1] (Table C, NTC AlphaScreen assay), the “*IC50 (μM)” value was “Inactive”.

`COc1ccc2[nH]c([S+]([O-])Cc3ncc(C)c(OC)c3C)nc2c1` (centres unmarked) [Omeprazole, omeprazole, reference compound]: the solubility in series [2] (setting [15]) is less than 5 µM; in series [2] (pH 6.5, fassif) it was 174 ± 5.4 µM (≈ 60 µg/mL).

For the molecule `CCc1nnc(COc2c(F)cc(/C=C3\SC(=S)N(CC(=O)N(C)C)C3=O)cc2OC)o1` [NADi-256], the “*IC50 (μM)” value in series [1] (Table C, NTC AlphaScreen assay) was “Inactive”.

As to `COc1cc(/C=C2\SC(=S)N(CC(=O)N(C)C)C2=O)cc(F)c1OCc1nnc(C)o1` [NADi-255], in series [1] (Table C, NTC AlphaScreen assay), the “*IC50 (μM)” value is on record as “Inactive”.

Turning to `COc1cc(/C=C2\SC(=S)N(CC(=O)N(C)C)C2=O)cc(F)c1OCc1ncco1` [NADi-248], the “*IC50 (μM)” value in series [1] (Table C, NTC AlphaScreen assay) is on record as “Inactive”.

For `CCOC(=O)COc1ccc(F)cc1/C=C1\SC(=S)N(CC(=O)N(C)C)C1=O` [SSTN-251], the IC50 in series [1] (setting [10]) was 5.1 µM; in series [3] it was 12.8 µM.

Turning to `COc1cc(/C=C2\SC(=S)N(CC(=O)N(C)C)C2=O)ccc1OCC(=O)O` [SSTN-254], the IC50 in series [1] (setting [10]) was 4.4 µM; in series [3], more than 25 µM.

`COc1cc(/C=C2\SC(=S)N(CC(=O)N(C)C)C2=O)cc(F)c1OCC(=O)O` [SSTN-258]: in series [1] (FIG. 1B), the “inhibition of NTC assembly” value is “did not inhibit”. Further, the “IC50 (μM) NTC” value in series [1] (Table B) is recorded as “Inactive”. Also, the “Cell viability (MTT, μM, 72 h treatment OE 33 cell line)” value in series [3] is “No effect”.
